≈ marks a conversion by molar mass, not a printed value. Calls of active or inactive are those of the source. The calls are words filed in the database; no cut-off is given here.
Legend:
Enterococcus faecalis = test: Antibacterial activity against Enterococcus faecalis ATCC 29212; format: functional
Pseudomonas aeruginosa = test: Antibacterial activity against Pseudomonas aeruginosa; format: functional, organism-based
Staphylococcus aureus [1] = test: Antibacterial activity against Staphylococcus aureus ATCC 29213; format: functional
Enterococcus faecium = test: Antibacterial activity against vancomycin-resistant Enterococcus faecium VRE1; format: functional
Streptococcus pyogenes = test: Antibacterial activity against Streptococcus pyogenes UWL; format: functional
Escherichia coli = test: Antibacterial activity against Escherichia coli; format: functional, organism-based
Staphylococcus aureus [2] = test: Antibacterial activity against methicillin-resistant Staphylococcus aureus MW2; format: functional
J774.A1 = test: Cytotoxicity against mouse J774A1 cells by trypan blue exclusion assay; format: cell-based

Compound	MIC (Enterococcus faecalis) [µg/mL]	Activity (Pseudomonas aeruginosa)	MIC (Staphylococcus aureus [1]) [µg/mL]	MIC (Enterococcus faecium) [µg/mL]	MIC (Streptococcus pyogenes) [µg/mL]	Activity (Escherichia coli)	MIC (Staphylococcus aureus [2]) [µg/mL]	IC50 (J774.A1) [µM]
O=C1C=C[C@]2(O[C@@H]3c4c2ccc(O)c4C(=O)[C@@H]2O[C@H]32)c2cccc(O)c21 [URNUCRATIN A]	0.5 (≈ 1.44 µM)	inactive	2 (≈ 5.74 µM)	1 (≈ 2.87 µM)	0.5 (≈ 1.44 µM)	inactive	2 (≈ 5.74 µM)	> 100
CN[C@H](CC(C)C)C(=O)N[C@H]1C(=O)N[C@@H](CC(N)=O)C(=O)N[C@H]2C(=O)N[C@H]3C(=O)N[C@H](C(=O)N[C@H](C(=O)O)c4cc(O)cc(O)c4-c4cc3ccc4O)[C@H](O)c3ccc(c(Cl)c3)Oc3cc2cc(c3O[C@@H]2O[C@H](CO)[C@@H](O)[C@H](O)[C@H]2O[C@H]2C[C@](C)(N)[C@H](O)[C@H](C)O2)Oc2ccc(cc2Cl)[C@H]1O [VANCOMYCIN]	2 (≈ 1.38 µM)			64 (≈ 44.2 µM)	1 (≈ 0.69 µM)			
COc1cccc2c1C(=O)C=C[C@]21O[C@@H]2c3c1ccc(O)c3C(=O)[C@@H]1O[C@H]21 [URNUCRATIN B]	8 (≈ 22.1 µM)	inactive	8 (≈ 22.1 µM)	8 (≈ 22.1 µM)	4 (≈ 11 µM)	inactive	8 (≈ 22.1 µM)	> 100
COc1cccc2c1C(=O)C=C[C@]21O[C@@H]2c3c1ccc(O)c3[C@H](O)[C@@H]1O[C@@H]12 [URNUCRATIN C]	64 (≈ 176 µM)	inactive	64 (≈ 176 µM)	64 (≈ 176 µM)	64 (≈ 176 µM)	inactive	64 (≈ 176 µM)	> 100
COc1ccc(C[C@H](N)C(=O)N[C@H]2[C@@H](O)[C@H](n3cnc4c(N(C)C)ncnc43)O[C@@H]2CO)cc1 [PUROMYCIN]								10
CN(C)[C@@H]1C(O)=C(C(N)=O)C(=O)[C@@]2(O)C(O)=C3C(=O)c4c(O)cccc4[C@@](C)(O)[C@H]3C[C@@H]12 [TETRACYCLINE]	16 (≈ 36 µM)		0.25 (≈ 0.563 µM)	4 (≈ 9 µM)	0.125 (≈ 0.281 µM)		0.125 (≈ 0.281 µM)	

Source: ChEMBL document CHEMBL2146412, “Antibacterial spirobisnaphthalenes from the North American cup fungus Urnula craterium” (J Nat Prod, 2012)
